{"source": "patent US12427151B2", "about": "“Compositions and method of treating cancer” (The Regents of the University of California, priority 2017, dated 2025)", "key": {"[1]": {"experiment": "Systemic toxicity in mice", "type": "in vivo", "settings": "intravenous 20 mg/kg every 48 hrs for 2 weeks", "method": "C57BL6 mice (8 week female) were intravascularly administrated with 6-HAP (20 mg/kg) or with an equal volume of vehicle (2.5% DMSO in 0.9% NaCl) every 48 hours for 2 weeks (Arrows). To observe toxicity of 6-HAP, mouse weight was determined at indicated time points. Data represent mean±SE of 10 mice.\nEffect of systemic administration with 6-HAP on skin infection and melanoma growth in mice. […] Thus, given the apparent lack of toxicity, the effect on deep tissue infection was tested by intravenously injecting the non-toxic dose of 6-HAP (20 mg/kg) into a mouse model of GAS deep skin infection."}, "MRSA USA300": {"test_system": "MRSA USA300", "experiment": "MBC determination", "type": "cell-based, methicillin-resistant S. aureus", "settings": "Staphylococcus aureus, 3-log reduction, 24 hour, 37° C., half strength MHB in PBS", "method": "(§1) To determine MBC, bacteria were cultured in TSB (Staphylococcus), THB (Streptococcus) or Nutrient broth (P. aeruginosa and E. coli) by reaching exponential phase (OD600=0.5-0.8). […] After incubation, the number of viable bacteria was measured by counting CFU after spreading 10-fold serial dilutions of bacteria on suitable agar plates. MBC was determined as a 3-log reduction (99.9%) of viable bacteria after 24 hour incubation.\n(§2) Antimicrobial activity of 6-HAP in vitro. To examine the specificity of 6-HAP for various bacteria, minimal bactericidal concentrations (MBCs) were determined according to dose-dependent killing curves at 24 hrs of incubation in vitro (Table 1). 6-HAP killed or suppressed growth of several major skin pathogens including GAS (NZ131), group B Streptococcus (GBS) (DK23), methicillin-sensitive S. aureus (ATCC35556), methicillin-resistant S. aureus (MRSA) strains (USA300 and Sanger252), Pseudomonas aeruginosa (P. aeruginosa) (ATCC14213) in vitro. […] S. epidermidis (ATCC12228) was also resistant to 6-HAP."}, "MRSA Sanger252": {"test_system": "MRSA Sanger252", "experiment": "MBC determination", "type": "cell-based, methicillin-resistant S. aureus", "settings": "Staphylococcus aureus, 3-log reduction, 24 hour, 37° C., half strength MHB in PBS", "method": "as §1, §2"}, "[2]": {"test_system": "L5178Y tk+/- mouse lymphoma cells", "experiment": "Mutagenic activity at the thymidine kinase (tk) locus", "type": "cell-based", "settings": "compared to vehicle", "method": "Because some nucleobase analogs exert mutagenic activities due to their misrecognition of wrong bases, mutagenic activity of 6-HAP was determined by detecting mutagenic events at the thymidine kinase (tk) locus of L5178Y tk^+/− mouse lymphoma cells."}, "GAS (NZ131)": {"test_system": "GAS (NZ131)", "experiment": "BrdU incorporation assay in bacteria", "type": "cell-based, group A Streptococcus", "settings": "6-HAP 25 μg/mL, 30 or 60 min", "method": "(§3) (a) Time course killing of GAS in THB containing 6-HAP (25 μg/mL), mitomycin C (5 μg/mL), or LL-37 (10 μM). At each indicated time point, live GAS in the media was measured by counting CFU on an agar plate. The data represent mean±SE of four individual experiments. (b) Membrane permeability of GAS incubated in THB containing 6-HAP (25 μg/mL), mitomycin C (5 μg/mL) and LL-37 (10 μM) for 1 hr. The bacteria with compromised plasma membranes (Red) can be distinguished from those with intact membranes (Green). (c) BrdU incorporation into nascent DNA of GAS after incubation with 6-HAP (25 μg/mL) or mitomycin C (5 μg/mL) in THB containing BrdU (10 μM) for 30 or 60 min. (d) BrdU incorporation into nascent DNA of S. epidermidis ATCC12228 after incubation with 6-HAP (25 μg/mL) or mitomycin C (5 μg/mL) in THB containing BrdU (10 μM) for 60 min. The data represent mean±SE of five individual experiments (*P<0.05 and **P<0.01 by Student's t-test vs vehicle control). (e-f) Capacity of 6-HAP to block in vitro DNA extension by Klenow fragment polymerase. […] Extension reaction was analyzed on a 20% acrylamide gel by electrophoresis (f). […] GAS survival was measured by counting CFU. […]\n(§4) BrdU incorporation assay. […] BrdU incorporation into nascent DNA was measured in a time-dependent manner using BrdU incorporation assay kit (Roche) according to the manual."}, "GAS": {"test_system": "GAS", "experiment": "Time course killing of GAS", "type": "cell-based, group A Streptococcus", "settings": "THB; 6-HAP 25 μg/mL, mitomycin C 5 μg/mL, LL-37 10 μM", "method": "(a) Time course killing of GAS in THB containing 6-HAP (25 μg/mL), mitomycin C (5 μg/mL), or LL-37 (10 μM). At each indicated time point, live GAS in the media was measured by counting CFU on an agar plate. The data represent mean±SE of four individual experiments. (b) Membrane permeability of GAS incubated in THB containing 6-HAP (25 μg/mL), mitomycin C (5 μg/mL) and LL-37 (10 μM) for 1 hr. The bacteria with compromised plasma membranes (Red) can be distinguished from those with intact membranes (Green). (c) BrdU incorporation into nascent DNA of GAS after incubation with 6-HAP (25 μg/mL) or mitomycin C (5 μg/mL) in THB containing BrdU (10 μM) for 30 or 60 min. (d) BrdU incorporation into nascent DNA of S. epidermidis ATCC12228 after incubation with 6-HAP (25 μg/mL) or mitomycin C (5 μg/mL) in THB containing BrdU (10 μM) for 60 min. The data represent mean±SE of five individual experiments (*P<0.05 and **P<0.01 by Student's t-test vs vehicle control). (e-f) Capacity of 6-HAP to block in vitro DNA extension by Klenow fragment polymerase. Extension reaction was carried out with IRDye800-labeled 18-nt primer (SEQ ID NO:57) and 25-nt template which required adenosine (X=T) or cytidine (X=G) at the initial base for extension (SEQ ID NO:58) (e). Extension reaction was analyzed on a 20% acrylamide gel by electrophoresis (f). […] GAS survival was measured by counting CFU. […]"}, "[3]": {"test_system": "S. epidermidis (ATCC12228)", "experiment": "BrdU incorporation assay in bacteria", "type": "cell-based", "settings": "6-HAP 25 μg/mL, 60 min", "method": "as §3, §4"}}}
{"smiles": "ONc1ncnc2nc[nH]c12", "note": "[6-HAP, 6-N-hydroxyaminopurine]", "values": [{"measurement": "toxic effects assessed by visual appearance, behavior or change in weight", "setting": "[1]", "value": "no apparent toxic effects"}, {"measurement": "MBC", "setting": "MRSA USA300", "value": 6.25, "unit": "µg/mL"}, {"measurement": "MBC", "setting": "MRSA Sanger252", "value": 0.781, "unit": "µg/mL"}, {"measurement": "mutagenic activity, mutation frequency at tk locus", "setting": "[2]", "value": "did not detect a difference"}, {"measurement": "BrdU incorporation into the genomic DNA of GAS", "setting": "GAS (NZ131)", "value": "Significant suppression"}, {"measurement": "kinetics of killing, growth of GAS over time", "setting": "GAS", "value": "at a rate similar to mitomycin C but slower than LL37"}, {"measurement": "BrdU incorporation in S. epidermidis", "setting": "[3]", "value": "did not affect"}]}
